Patent US20250188082A1, “Use of Hypoxanthine Compound In Preparation of Drug For Treating Pulmonary Fibrosis” (Sichuan Yiasuo Pharmaceutical Technology Co., Ltd., priority 2022, published 2025)

How the values were obtained:
Assay type in all cases: in vivo, C57BL/6 mice
[1] = system: bleomycin-induced pulmonary fibrosis model; assay: Advanced pulmonary fibrosis: bleomycin-induced model, dosing from three weeks after modelling; settings: for Leucocyte / Lymphocyte / Neutrophil / Ashcroft scores: advanced pulmonary fibrosis, 120 mg/kg/d intragastric, 14 days, from three weeks after model; for Leucocyte / Lymphocyte / Neutrophil: blood, Day 15, twice every day; for Ashcroft scores: lung tissue HE staining; for inhibition (anti-inflammatory) effect on leucocytes, neutrophils and lymphocytes in blood: mice with advanced pulmonary fibrosis, result in words
[2] = system: coronavirus-induced pulmonary fibrosis model (HcoV-OC43); assay: Coronavirus-induced pulmonary fibrosis model; settings: 120 mg/kg/d intragastric, 14 days; for Ashcroft scores: coronavirus HcoV-OC43 + bleomycin, lung tissue HE; for IL-1β / IL-6 / NF-κB / TNF-α: serum, HcoV-OC43 + bleomycin, from two weeks after model
Text: Experimental method: an in-vivo coronavirus-induced pulmonary fibrosis model mice was established: C57BL/6 mice (with weights being 22-25 g) were randomly and evenly divided into a plurality of groups, including blank control group, model group, Nintedanib positive control group, hypoxanthine analogue A group, hypoxanthine analogue B group, hypoxanthine analogue C group, compound 1 group, compound 2 group . . . compound 12 group, with 9 mice in each group. On Day 1, the mice in the blank control group were instilled with normal saline nasally, and the mice in other groups were all infected with HcoV-OC43 coronavirus strains (30 μL) through nasal instillation. On Day 2, the mice received 5 mg/kg bleomycin through tracheas to induce their pulmonary fibrosis. After the model was established for two weeks, the mice in each group were intragastrically administrated for intervention for consecutive 14 days; the mice in blank control group and model group intragastrically received the same dosage of the normal saline as those in drug groups; the mice in Nintedanib positive control group received Nintedanib (120 mg/kg); the mice in hypoxanthine analogue A group, hypoxanthine analogue B group and hypoxanthine analogue C group respectively received hypoxanthine analogue A (120 mg/kg/d), hypoxanthine analogue B (120 mg/kg/d) and hypoxanthine analogue C (120 mg/kg/d); and the mice in compound 1 group, compound 2 group . . . compound 12 group respectively received compound 1 (120 mg/kg/d), compound 2 (120 mg/kg/d) . . . compound 12 (120 mg/kg/d) prepared in example 1. After administration for consecutive 14 days, the mice were observed every day, and their weights and death conditions were recorded. After administration, blood was taken from eyeballs for immediately detecting the expression levels of NF-κB, TNF-α, IL-1 and IL-6 in serum, and lung tissues were taken for HE detection and Ashcroft scoring.

[3] = system: bleomycin-induced pulmonary fibrosis model; assay: Comparison with comparative drugs: bleomycin-induced model, hydroxyproline and TGF-β; settings: 120 mg/kg/d intragastric, twice every day, 14 days, from two weeks after model; Day 15
[4] = system: influenza B virus-induced pulmonary fibrosis model (influenza B (H7N9) virus); settings: 120 mg/kg/d intragastric, 14 days; for Ashcroft scores: influenza B virus + bleomycin, lung tissue HE; for IL-1β / NF-κB / TNF-α / IL-6: serum, from two weeks after model; for IL-1β / NF-κB / TNF-α: influenza B (H7N9) + bleomycin; for IL-6: influenza B + bleomycin
[5] = system: bleomycin-induced pulmonary fibrosis model; assay: Early pulmonary fibrosis: bleomycin-induced model, dosing from one week after modelling; settings: for Leucocyte / Lymphocyte / Neutrophil / Ashcroft scores: early pulmonary fibrosis, 120 mg/kg/d intragastric, 14 days, from one week after model; for Leucocyte / Lymphocyte / Neutrophil: blood, Day 15, twice every day; for Ashcroft scores: lung tissue HE staining; for inhibition (anti-inflammatory) effect on leucocytes, neutrophils and lymphocytes in blood: mice with early pulmonary fibrosis, result in words
[6] = system: Streptococcus pneumoniae-induced pulmonary fibrosis model; assay: Streptococcus pneumoniae-induced pulmonary fibrosis model; settings: for Leucocyte / Lymphocyte / Neutrophil / Ashcroft scores: Streptococcus pneumoniae + bleomycin, 120 mg/kg/d intragastric, 14 days; for Leucocyte / Lymphocyte / Neutrophil: blood, Day 15, 3 times every day, from one week after model; for Ashcroft scores: lung tissue HE staining; for inhibition (anti-inflammatory) effect on leucocytes, neutrophils and lymphocytes in blood: mice with Streptococcus pneumoniae-induced pulmonary fibrosis, result in words

For `CC(C)n1cnc2nc[nH]c(=O)c21` [Compound 6], the Leucocyte [1] was 4.58 10^9/L, the Lymphocyte [1] was 5.94 10^9/L and the Neutrophil [1] was 1.59 10^9/L. For the same molecule, the Ashcroft scores [1] was 1.19, the Ashcroft scores [2] was 1.30 and the IL-1β [2] was 39.5 pg/mL. For the same molecule, the IL-6 [2] was 65.7 pg/mL, the NF-κB [2] was 29.3 pg/mL and the TNF-α [2] was 56.2 pg/mL. For the same molecule, the “Hydroxyproline in bronchoalveolar lavage fluids” value [3] was 0.68 ± 0.07 µg/mg, the “Hydroxyproline in lung tissues” value [3] was 1.46 ± 0.07 µg/mg and the “TGF-β in bronchoalveolar lavage fluids” value [3] was 3.91 ± 0.18 µg/L. The “TGF-β in lung tissues” value [3] was 24.18 ± 2.14 µg/L, the Ashcroft scores [4] was 1.14 and the IL-1β [4] was 27.2 pg/mL. For the same molecule, the NF-κB [4] was 32.4 pg/mL, the TNF-α [4] was 75.3 pg/mL and the IL-6 [4] was 65.6 pg/mL. The Leucocyte [5] was 4.25 10^9/L, the Lymphocyte [5] was 5.49 10^9/L and the Neutrophil [5] was 1.19 10^9/L. For the same molecule, the Ashcroft scores [5] was 1.08, the Leucocyte [6] was 5.91 10^9/L and the Lymphocyte [6] was 7.55 10^9/L. The Neutrophil [6] was 1.88 10^9/L and the Ashcroft scores [6] was 1.27.
In the case of `CC(C)Oc1ncnc2c1ncn2C(C)C` [Compound 3], the Leucocyte [1] was 3.98 10^9/L, the Lymphocyte [1] was 5.18 10^9/L and the Neutrophil [1] was 1.19 10^9/L. The Ashcroft scores [1] was 0.87, the Ashcroft scores [2] was 1.03 and the IL-1β [2] was 31.3 pg/mL. It also gave an IL-6 [2] of 61.7 pg/mL, an NF-κB [2] of 23.7 pg/mL and a TNF-α [2] of 49.9 pg/mL. The “Hydroxyproline in bronchoalveolar lavage fluids” value [3] was 0.70 ± 0.05 µg/mg, the “Hydroxyproline in lung tissues” value [3] was 1.31 ± 0.07 µg/mg and the “TGF-β in bronchoalveolar lavage fluids” value [3] was 3.95 ± 0.19 µg/L. For the same molecule, the “TGF-β in lung tissues” value [3] was 24.15 ± 2.04 µg/L, the Ashcroft scores [4] was 0.98 and the IL-1β [4] was 25.8 pg/mL. The NF-κB [4] was 28.8 pg/mL, the TNF-α [4] was 71.8 pg/mL and the IL-6 [4] was 64.1 pg/mL. For the same molecule, the Leucocyte [5] was 4.01 10^9/L, the Lymphocyte [5] was 4.99 10^9/L and the Neutrophil [5] was 0.96 10^9/L. The Ashcroft scores [5] was 0.92, the Leucocyte [6] was 5.62 10^9/L and the Lymphocyte [6] was 5.77 10^9/L. For the same molecule, the Neutrophil [6] was 1.60 10^9/L and the Ashcroft scores [6] was 1.01.
`COc1ncnc2c1ncn2C(C)C` [Compound 7] was tested, and the Leucocyte ([1]; 120 mg/kg/day) was 4.61 10^9/L, the Lymphocyte ([1]; 120 mg/kg/day) was 5.65 10^9/L and the Neutrophil ([1]; 120 mg/kg/day) was 1.44 10^9/L. It also gave an Ashcroft scores ([1]; 120 mg/kg/day) of 1.13, an Ashcroft scores [2] of 1.49 and an IL-1β [2] of 33.2 pg/mL. For the same molecule, the IL-6 [2] was 64.3 pg/mL, the NF-κB [2] was 25.6 pg/mL and the TNF-α [2] was 55.9 pg/mL. For the same molecule, the “Hydroxyproline in bronchoalveolar lavage fluids” value [3] was 0.69 ± 0.08 µg/mg, the “Hydroxyproline in lung tissues” value [3] was 1.42 ± 0.14 µg/mg and the “TGF-β in bronchoalveolar lavage fluids” value [3] was 4.02 ± 0.15 µg/L. For the same molecule, the “TGF-β in lung tissues” value [3] was 25.15 ± 2.53 µg/L, the Ashcroft scores [4] was 1.20 and the IL-1β [4] was 27.9 pg/mL. It also gave an NF-κB [4] of 33.4 pg/mL, a TNF-α [4] of 74.1 pg/mL and an IL-6 [4] of 70.3 pg/mL. The Leucocyte ([5]; 120 mg/kg/day) was 4.19 10^9/L, the Lymphocyte ([5]; 120 mg/kg/day) was 5.44 10^9/L and the Neutrophil ([5]; 120 mg/kg/day) was 1.23 10^9/L. The Ashcroft scores ([5]; 120 mg/kg/day) was 1.11, the Leucocyte ([6]; 120 mg/kg/day) was 6.39 10^9/L and the Lymphocyte ([6]; 120 mg/kg/day) was 7.72 10^9/L. For the same molecule, the Neutrophil ([6]; 120 mg/kg/day) was 1.88 10^9/L and the Ashcroft scores ([6]; 120 mg/kg/day) was 1.29.
`CC(C)Oc1ncnc2ncn(C(C)C)c12` [Compound 4] was tested, and the Leucocyte [1] was 4.26 10^9/L, the Lymphocyte [1] was 5.63 10^9/L and the Neutrophil [1] was 1.34 10^9/L. For the same molecule, the Ashcroft scores [1] was 1.24, the Ashcroft scores [2] was 1.39 and the IL-1β [2] was 35.5 pg/mL. The IL-6 [2] was 63.9 pg/mL, the NF-κB [2] was 26.7 pg/mL and the TNF-α [2] was 52.9 pg/mL. For the same molecule, the “Hydroxyproline in bronchoalveolar lavage fluids” value [3] was 0.71 ± 0.08 µg/mg, the “Hydroxyproline in lung tissues” value [3] was 1.29 ± 0.08 µg/mg and the “TGF-β in bronchoalveolar lavage fluids” value [3] was 3.95 ± 0.14 µg/L. The “TGF-β in lung tissues” value [3] was 24.58 ± 1.95 µg/L, the Ashcroft scores [4] was 1.17 and the IL-1β [4] was 27.6 pg/mL. The NF-κB [4] was 29.3 pg/mL, the TNF-α [4] was 73.9 pg/mL and the IL-6 [4] was 66.7 pg/mL. For the same molecule, the Leucocyte [5] was 4.29 10^9/L, the Lymphocyte [5] was 5.56 10^9/L and the Neutrophil [5] was 1.31 10^9/L. The Ashcroft scores [5] was 1.18, the Leucocyte [6] was 6.99 10^9/L and the Lymphocyte [6] was 6.84 10^9/L. The Neutrophil [6] was 1.51 10^9/L and the Ashcroft scores [6] was 1.29.
With `COC(=O)c1ccc2c(c1)NC(=O)/C2=C(\Nc1ccc(N(C)C(=O)CN2CCN(C)CC2)cc1)c1ccccc1` [Nintedanib, reference compound] the Leucocyte [1] was 46.09 10^9/L, the Lymphocyte [1] was 50.03 10^9/L and the Neutrophil [1] was 40.99 10^9/L. For the same molecule, the Ashcroft scores [1] was 4.13, the “inhibition (anti-inflammatory) effect on leucocytes, neutrophils and lymphocytes in blood” value (from here on “inhibition (anti-inflammatory) effect”) [1] was “obviously inferior” and the Ashcroft scores [2] was 4.11. The IL-1β [2] was 525.3 pg/mL, the IL-6 [2] was 421.5 pg/mL and the NF-κB [2] was 521.3 pg/mL. The TNF-α [2] was 411.3 pg/mL, the “Hydroxyproline in bronchoalveolar lavage fluids” value [3] was 1.25 ± 0.14 µg/mg and the “Hydroxyproline in lung tissues” value [3] was 2.36 ± 0.12 µg/mg. For the same molecule, the “TGF-β in bronchoalveolar lavage fluids” value [3] was 7.11 ± 0.24 µg/L, the “TGF-β in lung tissues” value [3] was 75.32 ± 7.51 µg/L and the Ashcroft scores [4] was 4.08. For the same molecule, the IL-1β [4] was 166.3 pg/mL, the NF-κB [4] was 529.7 pg/mL and the TNF-α [4] was 141.3 pg/mL. The IL-6 [4] was 176.1 pg/mL, the Leucocyte [5] was 33.76 10^9/L and the Lymphocyte [5] was 33.87 10^9/L. The Neutrophil [5] was 31.32 10^9/L, the Ashcroft scores [5] was 3.69 and the “inhibition (anti-inflammatory) effect” value [5] was “obviously inferior”. The Leucocyte [6] was 98.31 10^9/L, the Lymphocyte [6] was 87.43 10^9/L and the Neutrophil [6] was 78.94 10^9/L. The Ashcroft scores [6] was 4.55 and the “inhibition (anti-inflammatory) effect” value [6] was “obviously inferior”.
`CC(C)Oc1ncnc2c1ncn2C` [Hypoxanthine analogue B, reference compound] was tested, and the Leucocyte [1] was 71.35 10^9/L, the Lymphocyte [1] was 67.37 10^9/L and the Neutrophil [1] was 68.34 10^9/L. The Ashcroft scores [1] was 6.01, the “inhibition (anti-inflammatory) effect” value [1] was “obviously inferior” and the Ashcroft scores [2] was 6.12. It also gave an IL-1β [2] of 560.6 pg/mL, an IL-6 [2] of 522.2 pg/mL and an NF-κB [2] of 730.1 pg/mL. The TNF-α [2] was 454.4 pg/mL, the “Hydroxyproline in bronchoalveolar lavage fluids” value [3] was 1.81 ± 0.14 µg/mg and the “Hydroxyproline in lung tissues” value [3] was 2.97 ± 0.19 µg/mg. For the same molecule, the “TGF-β in bronchoalveolar lavage fluids” value [3] was 8.95 ± 0.68 µg/L, the “TGF-β in lung tissues” value [3] was 91.53 ± 9.56 µg/L and the Ashcroft scores [4] was 6.21. The IL-1β [4] was 240.6 pg/mL, the NF-κB [4] was 627.1 pg/mL and the TNF-α [4] was 190.2 pg/mL. For the same molecule, the IL-6 [4] was 193.1 pg/mL, the Leucocyte [5] was 49.97 10^9/L and the Neutrophil [5] was 36.88 10^9/L. For the same molecule, the Ashcroft scores [5] was 5.39, the “inhibition (anti-inflammatory) effect” value [5] was “obviously inferior” and the Leucocyte [6] was 156.11 10^9/L. The Lymphocyte [6] was 91.01 10^9/L, the Neutrophil [6] was 89.86 10^9/L and the Ashcroft scores [6] was 6.14. The “inhibition (anti-inflammatory) effect” value [6] was “obviously inferior”.
